Like-named read-outs stand apart in the source and are kept apart here.
Experiments:
[1] = cited from earlier work
[2] = cited from earlier work; remark: listed apart in the source
[3] = test system: bladder or urethra; conditions: epidural application, 4 μg/kg (Batra) or 2 μg/kg (Drenger, dogs); cited from earlier work
[4] = test system: bladder overactivity induced by oxyhemoglobine; assay: Cystometry with wake rats damaged by oxyhemoglobin (urge incontinence model); format: in vivo, Sprague-Dawley rat
[5] = test system: bladder function; conditions: rat model with rhythmic bladder contraction; cited from earlier work
[6] = after use of the substances, OxyHb 2.5 × 10^−4M, buprenorphine 0.005 mg/kg iv where given
[7] = before use of the substances, OxyHb 2.5 × 10^−4M, buprenorphine 0.005 mg/kg iv where given
[8] = change compared to the pre-basis

21-cyclopropyl-7-α-[(S)-1-hydroxy-1,2,2-trimethylpropyl]-6,14-endo-ethano-6,7,8,14-tetrahydrooripavine [buprenorphine]
plasma concentration ([1]; about 5 minutes after intravenous 0.3 mg): about 9 ng/ml | plasma concentration ([1]; about 3 hours after intramuscular 0.3-mg dose): about 0.4 ng/ml | time of mean peak plasma concentration ([1]; intravenous single dose of about 0.3 mg): ≤ 2 min | Cmax ([2]; 0.4 mg sublingual dose): 0.50 ng/mL | Cmax ([2]; 0.8 mg sublingual dose): 1.04 ng/mL | influence on the function of bladder or urethra [3]: does not have a significant influence

OxyHb
ICI inter-contraction interval, after (a) [4, 6]: a: 3.33 ± 0.18 min | MP Micturition pressure, after (a) [4, 6]: a: 97 ± 5 cm H2O | TP threshold pressure, after (a) [4, 6]: a: 9.84 ± 1.56 cm H2O | bladder capacity, after (a) [4, 6]: a: 0.65 ± 0.06 ml | ICI inter-contraction interval, before (b) [4, 7]: b: 4.96 ± 0.33 min | MP Micturition pressure, before (b) [4, 7]: b: 59 ± 8 cm H2O | TP threshold pressure, before (b) [4, 7]: b: 8.72 ± 1.31 cm H2O | bladder capacity, before (b) [4, 7]: b: 0.92 ± 0.10 ml | ICI inter-contraction interval, Diff. [4, 8]: Diff.: −32.9% | MP Micturition pressure, Diff. [4, 8]: Dif.: +64.4% | TP threshold pressure, Diff. [4, 8]: Diff.: +12.8% | bladder capacity, Diff. [4, 8]: Diff.: −29.3%

COc1cccc(C2(O)CCCCC2CN(C)C)c1 (stereo not shown) [tramadol]
effect on bladder function [5]: positive effect

— patent US20040228906A1 (priority 2001, published 2004)
